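96-well plates; 48 h exposure; 5 concentrations. Endpoints by linear interpolation between flanking doses. Not reached: highest tested concentration assigned. GI50: concentration for 50% inhibition of growth. The concentration for full growth arrest is given as TGI.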
How the values were obtained:
Experiment in all cases: NCI tumour cell line growth inhibition, 48 h
TK-10 renal = test system: TK-10 renal
HCC-2998 colon = test system: HCC-2998 colon
EKVX NSCLC = test system: EKVX NSCLC
786-0 renal = test system: 786-0 renal
T-47D breast = test system: T-47D breast
SN12C renal = test system: SN12C renal
CCRF-CEM leukemia = test system: CCRF-CEM leukemia
OVCAR-4 ovarian = test system: OVCAR-4 ovarian
MDA-MB-435 = test system: MDA-MB-435
SNB-75 CNS = test system: SNB-75 CNS
UO-31 renal = test system: UO-31 renal
MDA-MB-231 breast = test system: MDA-MB-231 breast
NCI-H460 lung = test system: NCI-H460 lung
SR leukemia = test system: SR leukemia
HS 578T breast = test system: HS 578T breast
NCI/ADR-RES ovarian = test system: NCI/ADR-RES ovarian
HOP-92 NSCLC = test system: HOP-92 NSCLC
OVCAR-5 ovarian = test system: OVCAR-5 ovarian
SW-620 colon = test system: SW-620 colon
KM12 colon = test system: KM12 colon
A498 renal = test system: A498 renal
SF-295 CNS = test system: SF-295 CNS
OVCAR-3 ovarian = test system: OVCAR-3 ovarian
K-562 leukemia = test system: K-562 leukemia
HCT-116 colon = test system: HCT-116 colon
RPMI-8226 leukemia = test system: RPMI-8226 leukemia
CAKI-1 renal = test system: CAKI-1 renal
HCT-15 colon = test system: HCT-15 colon
RXF 393 renal = test system: RXF 393 renal

## Cc1ccc(-c2nc(C(Cl)Cl)nc3cc(-c4ccccc4)nn23)cc1
TK-10 renal
  GI50: 33.3 µM
  TGI: > 100 µM
HCC-2998 colon
  GI50: 6.05 µM
  TGI: 20 µM
EKVX NSCLC
  GI50: 17.8 µM
  TGI: 57.8 µM
786-0 renal
  GI50: > 100 µM
  TGI: > 100 µM
T-47D breast
  GI50: 28.3 µM
  TGI: > 100 µM
SN12C renal
  GI50: 98.9 µM
  TGI: > 100 µM
CCRF-CEM leukemia
  GI50: 47.7 µM
  TGI: > 100 µM
OVCAR-4 ovarian
  GI50: 17.9 µM
  TGI: 73.1 µM
MDA-MB-435
  GI50: 25.3 µM
  TGI: 98 µM
SNB-75 CNS
  GI50: > 100 µM
  TGI: > 100 µM
UO-31 renal
  GI50: > 100 µM
  TGI: > 100 µM
MDA-MB-231 breast
  GI50: 20.5 µM
  TGI: > 100 µM
NCI-H460 lung
  GI50: 7.26 µM
  TGI: 30.3 µM
SR leukemia
  GI50: 9.91 µM
  TGI: > 100 µM
HS 578T breast
  GI50: 56.9 µM
  TGI: > 100 µM
NCI/ADR-RES ovarian
  GI50: 13.5 µM
  TGI: > 100 µM
HOP-92 NSCLC
  GI50: 23.9 µM
  TGI: 79.4 µM
OVCAR-5 ovarian
  GI50: 24.2 µM
  TGI: > 100 µM
SW-620 colon
  GI50: 9.97 µM
  TGI: 55.8 µM
KM12 colon
  GI50: 17.8 µM
  TGI: 66.4 µM
A498 renal
  GI50: 17.4 µM
  TGI: 38.9 µM
SF-295 CNS
  GI50: 24 µM
  TGI: 71.2 µM
OVCAR-3 ovarian
  GI50: 13.4 µM
  TGI: 31.5 µM
K-562 leukemia
  GI50: 22.4 µM
  TGI: > 100 µM
HCT-116 colon
  GI50: 15.6 µM
  TGI: > 100 µM
RPMI-8226 leukemia
  GI50: 35.9 µM
  TGI: > 100 µM
CAKI-1 renal
  GI50: 16.2 µM
  TGI: 58.3 µM
HCT-15 colon
  GI50: 10.5 µM
  TGI: 72.3 µM
RXF 393 renal
  GI50: 10.6 µM

Source: PubChem BioAssay (NCI)
